Reference: PubChem BioAssay AID1963833 (Molecular Pharmacology Branch, DTP, NCI, 2024)

Test system: 883617-216-R-J1-PDC complex spheroid viability
Assay: Anticancer human tumor 883617-216-R-J1-PDC patient-derived bladder carcinoma cell line growth inhibition [POLQ]
Settings: for IC50: curve of first compound; for viability, T/C: stronger effect = lower value
Procedure, shortened: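 Patient-derived tumour cells were co-cultured with HUVEC and mesenchymal stem cells as multicellular spheroids at 37 °C. They were treated with POLQ inhibitors (novobiocin, ART-558, RP6685) alone or combined with other agents. Top concentrations were at or near clinical Cmax (otherwise 10 microM; SN-38 at 1 microM), decreasing in half-log steps.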

[1] = second compound 0.0316 µM, first compound 0.0316 µM
[2] = second compound 0.0316 µM, first compound 0.1 µM
[3] = second compound 0.0316 µM, first compound 0.316 µM
[4] = second compound 0.0316 µM, first compound 1 µM
[5] = second compound 0.0316 µM, first compound 3.16 µM
[6] = second compound 0.0316 µM, first compound 10 µM
[7] = second compound 0.1 µM, first compound 0.0316 µM
[8] = second compound 0.1 µM, first compound 0.1 µM
[9] = second compound 0.1 µM, first compound 0.316 µM
[10] = second compound 0.1 µM, first compound 1 µM
[11] = second compound 0.1 µM, first compound 3.16 µM
[12] = second compound 0.1 µM, first compound 10 µM
[13] = second compound 0.316 µM, first compound 0.0316 µM
[14] = second compound 0.316 µM, first compound 0.1 µM
[15] = second compound 0.316 µM, first compound 0.316 µM
[16] = second compound 0.316 µM, first compound 1 µM
[17] = second compound 0.316 µM, first compound 3.16 µM
[18] = second compound 0.316 µM, first compound 10 µM
[19] = second compound 1 µM, first compound 0.0316 µM
[20] = second compound 1 µM, first compound 0.1 µM
[21] = second compound 1 µM, first compound 0.316 µM
[22] = second compound 1 µM, first compound 1 µM
[23] = second compound 1 µM, first compound 3.16 µM
[24] = second compound 1 µM, first compound 10 µM
[25] = second compound 3.16 µM, first compound 0.0316 µM
[26] = second compound 3.16 µM, first compound 0.1 µM
[27] = second compound 3.16 µM, first compound 0.316 µM
[28] = second compound 3.16 µM, first compound 1 µM
[29] = second compound 3.16 µM, first compound 3.16 µM
[30] = second compound 3.16 µM, first compound 10 µM
[31] = second compound 10 µM, first compound 0.0316 µM
[32] = second compound 10 µM, first compound 0.1 µM
[33] = second compound 10 µM, first compound 0.316 µM
[34] = second compound 10 µM, first compound 1 µM
[35] = second compound 10 µM, first compound 3.16 µM
[36] = second compound 10 µM, first compound 10 µM
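Also: spheroids exposed to compounds for seven days before readout.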
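For viability, T/C in this document: 100% = DMSO vehicle control viability.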

`CC1COCCN1c1cc(C2(O)CC3CCC(C2)O3)c2cnn(-c3ccn[nH]3)c2n1` (stereo not drawn) + Cc1cccc(N(C)C(=O)C2C(O)CCN2c2nc(C)cc(C(F)(F)F)c2C#N)c1 was tested, and the IC50 (second compound 0.0316 µM) was 156 nM, the IC50 (second compound 0.1 µM) was 173 nM and the IC50 (second compound 0.316 µM) was 188 nM. It also gave an IC50 (second compound 1 µM) of 125 nM, an IC50 (second compound 3.16 µM) of 173 nM and an IC50 (second compound 10 µM) of 215 nM. It also gave a viability, T/C [1] of 76.6%, a viability, T/C [2] of 58.4% and a viability, T/C [3] of 35.7%. The viability, T/C [4] was 33.7%, the viability, T/C [5] was 23.9% and the viability, T/C [6] was 23.9%. The viability, T/C [7] was 80.4%, the viability, T/C [8] was 54.9% and the viability, T/C [9] was 41.2%. For the same compound, the viability, T/C [10] was 37.9%, the viability, T/C [11] was 26.8% and the viability, T/C [12] was 23.2%. It also gave a viability, T/C [13] of 71%, a viability, T/C [14] of 61.2% and a viability, T/C [15] of 38.6%. For the same compound, the viability, T/C [16] was 35.8%, the viability, T/C [17] was 24.2% and the viability, T/C [18] was 24%. For the same compound, the viability, T/C [19] was 78.6%, the viability, T/C [20] was 48.8% and the viability, T/C [21] was 41.7%. The viability, T/C [22] was 33%, the viability, T/C [23] was 27.9% and the viability, T/C [24] was 23.2%. For the same compound, the viability, T/C [25] was 79.3%, the viability, T/C [26] was 54.9% and the viability, T/C [27] was 44.9%. It also gave a viability, T/C [28] of 31.6%, a viability, T/C [29] of 26.4% and a viability, T/C [30] of 23.4%. It also gave a viability, T/C [31] of 81.5%, a viability, T/C [32] of 60.3% and a viability, T/C [33] of 39.3%. The viability, T/C [34] was 42.4%, the viability, T/C [35] was 31.4% and the viability, T/C [36] was 23.9%.

For `O=C(Nc1ccc(O)c(NS(=O)(=O)c2ccc(F)cc2)c1)c1ccc(-c2ccccc2)cc1` + Cc1cccc(N(C)C(=O)C2C(O)CCN2c2nc(C)cc(C(F)(F)F)c2C#N)c1, the IC50 (second compound 0.0316 µM) was greater than 10000 nM, the IC50 (second compound 0.1 µM) was greater than 10000 nM and the IC50 (second compound 0.316 µM) was greater than 10000 nM. The IC50 (second compound 1 µM) was greater than 10000 nM, the IC50 (second compound 3.16 µM) was greater than 10000 nM and the IC50 (second compound 10 µM) was greater than 10000 nM. It also gave a viability, T/C [1] of 96.5%, a viability, T/C [2] of 90.4% and a viability, T/C [3] of 86.6%. For the same compound, the viability, T/C [4] was 91.7%, the viability, T/C [5] was 81.9% and the viability, T/C [6] was 65.5%. It also gave a viability, T/C [7] of 98.6%, a viability, T/C [8] of 98% and a viability, T/C [9] of 96.5%. It also gave a viability, T/C [10] of 80%, a viability, T/C [11] of 79.3% and a viability, T/C [12] of 66.3%. For the same compound, the viability, T/C [13] was 97.6%, the viability, T/C [14] was 103% and the viability, T/C [15] was 95.3%. For the same compound, the viability, T/C [16] was 93.1%, the viability, T/C [17] was 83.3% and the viability, T/C [18] was 68.2%. For the same compound, the viability, T/C [19] was 97.9%, the viability, T/C [20] was 99.7% and the viability, T/C [21] was 99.1%. The viability, T/C [22] was 82.9%, the viability, T/C [23] was 88.3% and the viability, T/C [24] was 71.1%. It also gave a viability, T/C [25] of 94.6%, a viability, T/C [26] of 103% and a viability, T/C [27] of 85.3%. For the same compound, the viability, T/C [28] was 105%, the viability, T/C [29] was 80.8% and the viability, T/C [30] was 75.4%. The viability, T/C [31] was 105%, the viability, T/C [32] was 102% and the viability, T/C [33] was 94.2%. It also gave a viability, T/C [34] of 91%, a viability, T/C [35] of 81.5% and a viability, T/C [36] of 57.1%.

Compound `CC(=O)O[C@H]1C(=O)[C@@]2(C)[C@H]([C@H](OC(=O)c3ccccc3)[C@]3(O)C[C@H](OC(=O)[C@H](O)[C@@H](NC(=O)c4ccccc4)c4ccccc4)C(C)=C1C3(C)C)[C@]1(OC(C)=O)CO[C@@H]1C[C@@H]2O` + Nc1ccc(C#CCN(C(=O)Cc2ncc(C(F)(F)F)cc2C(F)(F)F)c2ccc(F)cc2)nn1 has an IC50 (second compound 0.0316 µM) of 11.9 nM, an IC50 (second compound 0.1 µM) of 10.5 nM and an IC50 (second compound 0.316 µM) of less than 9.49 nM. The IC50 (second compound 1 µM) was less than 9.49 nM, the IC50 (second compound 3.16 µM) was 10.4 nM and the IC50 (second compound 10 µM) was 11.6 nM. For the same compound, the viability, T/C (second compound 0.0316 µM, first compound 0.00949 µM) was 54.8%, the viability, T/C (second compound 0.0316 µM, first compound 0.03 µM) was 30.9% and the viability, T/C (second compound 0.0316 µM, first compound 0.0949 µM) was 24.9%. The viability, T/C (second compound 0.0316 µM, first compound 0.3 µM) was 22.9%, the viability, T/C (second compound 0.0316 µM, first compound 0.949 µM) was 25.1% and the viability, T/C (second compound 0.0316 µM, first compound 3 µM) was 22.2%. It also gave a viability, T/C (second compound 0.1 µM, first compound 0.00949 µM) of 52.2%, a viability, T/C (second compound 0.1 µM, first compound 0.03 µM) of 27.6% and a viability, T/C (second compound 0.1 µM, first compound 0.0949 µM) of 31.1%. The viability, T/C (second compound 0.1 µM, first compound 0.3 µM) was 17.8%, the viability, T/C (second compound 0.1 µM, first compound 0.949 µM) was 18.7% and the viability, T/C (second compound 0.1 µM, first compound 3 µM) was 24.2%. For the same compound, the viability, T/C (second compound 0.316 µM, first compound 0.00949 µM) was 51.6%, the viability, T/C (second compound 0.316 µM, first compound 0.03 µM) was 31.1% and the viability, T/C (second compound 0.316 µM, first compound 0.0949 µM) was 21.7%. It also gave a viability, T/C (second compound 0.316 µM, first compound 0.3 µM) of 24.8%, a viability, T/C (second compound 0.316 µM, first compound 0.949 µM) of 34.9% and a viability, T/C (second compound 0.316 µM, first compound 3 µM) of 36%. It also gave a viability, T/C (second compound 1 µM, first compound 0.00949 µM) of 49.1%, a viability, T/C (second compound 1 µM, first compound 0.03 µM) of 26.9% and a viability, T/C (second compound 1 µM, first compound 0.0949 µM) of 23.5%. It also gave a viability, T/C (second compound 1 µM, first compound 0.3 µM) of 20%, a viability, T/C (second compound 1 µM, first compound 0.949 µM) of 23% and a viability, T/C (second compound 1 µM, first compound 3 µM) of 31.8%. It also gave a viability, T/C (second compound 3.16 µM, first compound 0.00949 µM) of 50.5%, a viability, T/C (second compound 3.16 µM, first compound 0.03 µM) of 43.2% and a viability, T/C (second compound 3.16 µM, first compound 0.0949 µM) of 27.8%. It also gave a viability, T/C (second compound 3.16 µM, first compound 0.3 µM) of 28%, a viability, T/C (second compound 3.16 µM, first compound 0.949 µM) of 20.7% and a viability, T/C (second compound 3.16 µM, first compound 3 µM) of 23.5%. The viability, T/C (second compound 10 µM, first compound 0.00949 µM) was 53.8%, the viability, T/C (second compound 10 µM, first compound 0.03 µM) was 31.9% and the viability, T/C (second compound 10 µM, first compound 0.0949 µM) was 27.2%. It also gave a viability, T/C (second compound 10 µM, first compound 0.3 µM) of 26.5%, a viability, T/C (second compound 10 µM, first compound 0.949 µM) of 28% and a viability, T/C (second compound 10 µM, first compound 3 µM) of 24.6%.

`COc1cccc2c1C(=O)c1c(O)c3c(c(O)c1C2=O)CC(O)(C(=O)CO)CC3OC1CC(N)C(O)C(C)O1` (stereo not drawn) + Nc1ccc(C#CCN(C(=O)Cc2ncc(C(F)(F)F)cc2C(F)(F)F)c2ccc(F)cc2)nn1 was tested, and the IC50 (second compound 0.0316 µM) was 440 nM, the IC50 (second compound 0.1 µM) was 382 nM and the IC50 (second compound 0.316 µM) was 341 nM. The IC50 (second compound 1 µM) was 398 nM, the IC50 (second compound 3.16 µM) was 371 nM and the IC50 (second compound 10 µM) was 419 nM. For the same compound, the viability, T/C [1] was 76.5%, the viability, T/C [2] was 67.2% and the viability, T/C [3] was 62.8%. For the same compound, the viability, T/C [4] was 19.8%, the viability, T/C [5] was 0.23% and the viability, T/C [6] was 0.18%. It also gave a viability, T/C [7] of 71.3%, a viability, T/C [8] of 74.7% and a viability, T/C [9] of 55.2%. For the same compound, the viability, T/C [10] was 18.8%, the viability, T/C [11] was 0.24% and the viability, T/C [12] was 0.17%. For the same compound, the viability, T/C [13] was 79.3%, the viability, T/C [14] was 72.2% and the viability, T/C [15] was 52.9%. The viability, T/C [16] was 16.7%, the viability, T/C [17] was 0.21% and the viability, T/C [18] was 0.71%. It also gave a viability, T/C [19] of 77.3%, a viability, T/C [20] of 64.2% and a viability, T/C [21] of 59.7%. The viability, T/C [22] was 15.4%, the viability, T/C [23] was 0.76% and the viability, T/C [24] was 0.21%. For the same compound, the viability, T/C [25] was 78.5%, the viability, T/C [26] was 68.6% and the viability, T/C [27] was 56.6%. For the same compound, the viability, T/C [28] was 15.3%, the viability, T/C [29] was 0.47% and the viability, T/C [30] was 0.94%. For the same compound, the viability, T/C [31] was 81.8%, the viability, T/C [32] was 63% and the viability, T/C [33] was 62.6%. For the same compound, the viability, T/C [34] was 14.5%, the viability, T/C [35] was 0.53% and the viability, T/C [36] was 0.36%.
